From patent US12281057B2 (VERTEX PHARMACEUTICALS INCORPORATED, priority 2017, dated 2025)

Target: truncated form of human NaV 1.8 with full channel activity (Homo sapiens, UniProt Q9Y5Y9)
Assay: E-VIPR Assay Method A for detecting and measuring Nav inhibition (HEK cells, membrane potential FRET dyes, electrical stimulation)
Assay type: cell-based
Details: HEK cells expressing human NaV 1.8, HS (human serum) in compound loading buffer, 11 point dose response, top dose 3 μM, Table 20, read-out: Nav 1.8 MedChem Optical Assay EVIPR Assay Method A HS IC50
Excerpt: E-VIPR Assay Method A for Detecting and Measuring Nav Inhibition Properties Sodium ion channels are voltage-dependent proteins that can be activated by inducing membrane voltage changes by applying electric fields. The electrical stimulation instrument and methods of use, referred to as E-VIPR, are described in International Publication No. WO 2002/008748 A3 and C.-J. Huang et al. Characterization of voltage-gated sodium channel blockers by electrical stimulation and fluorescence detection of membrane potential, 24 Nature Biotech. 439-46 (2006), both of which are incorporated by reference in their entirety. The instrument comprises a microtiter plate handler, an optical system for exciting the coumarin dye while simultaneously recording the coumarin and oxonol emissions, a waveform generator, a current- or voltage-controlled amplifier, and parallel electrode pairs that are inserted into assay plate wells. Under integrated computer control, this instrument passes user-programmed electrical stimulus protocols to cells within the wells of the microtiter plate. […] Sigma #F4135), 1% NEAA (Non-Essential Amino Acids, Life Tech #11140), 1% HEPES (Life Tech #15630), 1% Pen-Strep (Penicillin-Streptomycin; […] Cells were expanded in vented cap flasks, with 95% humidity and 5% CO2. Reagents and Stock Solutions: • 100 mg/mL Pluronic F-127 (Sigma #P2443), in dry DMSO • Compound Plates: […] 5% KIR 2.1 Bacmam virus (produced in-house), prepared as described in Section 3.3 of J. A. […] The solution was made by adding 10% Pluronic F127 stock equal to combined volumes of CC2-DMPE and DiSBAC6(3). The order of preparation was first mix Pluronic and CC2-DMPE, then add DiSBAC6(3), then while vortexing add Bath1/β-Cyclodextrin. […] Assay Protocol: […] Final DMSO concentration for all wells in the assay was 0.625% (0.75% DMSO was supplemented to the Compound Loading Buffer for a final DMSO concentration of 0.625%). […] 3) Cell plates were prepared. On the day of the assay, the media was aspirated, and the cells were washed three times with 80 μL of Bath-1 buffer, maintaining 25 μL residual volume in each well. 4) 25 μL per well of Hexyl Dye Solution was dispensed into the cell plates. The cells were incubated for 20 minutes at room temp or ambient conditions in darkness. 5) 80 μL per well of Compound Loading Buffer was dispensed into compound plates. 6) The cell plates were washed three times with 80 μL per well of Bath-1 Buffer, leaving 25 µL of residual volume. Then 25 uL per well from compound plate was transferred to each cell plate. The mixture was incubated for 30 minutes at room temp/ambient conditions. 7) The plate was read on E-VIPR using the current-controlled amplifier to deliver stimulation wave pulses using the following protocol: 1.25 Amps, 2.5 ms pulse width biphasic waveform, 10 Hz for 10 seconds at a scan rate of 200 Hz. A pre-stimulus recording was performed for 0.5 seconds to obtain the un-stimulated intensities baseline. The stimulatory waveform was followed by 0.5 seconds of post-stimulation recording to examine the relaxation to the resting state. Data Analysis: Data were analyzed and reported as normalized ratios of emission intensities measured in the 460 nm and 580 nm channels. The response as a function of time was reported as the ratios obtained using the following formula: […] The data were further reduced by calculating the initial (Ri) and final (Rf) ratios. These were the average ratio values during part or all of the pre-stimulation period and during sample points during the stimulation period. The fluorescence ratio (Rf/Ri) was then calculated and reported as a function of time. Control responses were obtained by performing assays in the presence of the positive control, and in the absence of pharmacological agents (DMSO vehicle negative control). Responses to the negative (N) and positive (P) controls were calculated as above. The compound antagonist % activity A was then defined as: [formula] where X is the ratio response of the test compound. […]

Sequence of truncated form of human NaV 1.8 with full channel activity (Q9Y5Y9 126-1722 limits assumed): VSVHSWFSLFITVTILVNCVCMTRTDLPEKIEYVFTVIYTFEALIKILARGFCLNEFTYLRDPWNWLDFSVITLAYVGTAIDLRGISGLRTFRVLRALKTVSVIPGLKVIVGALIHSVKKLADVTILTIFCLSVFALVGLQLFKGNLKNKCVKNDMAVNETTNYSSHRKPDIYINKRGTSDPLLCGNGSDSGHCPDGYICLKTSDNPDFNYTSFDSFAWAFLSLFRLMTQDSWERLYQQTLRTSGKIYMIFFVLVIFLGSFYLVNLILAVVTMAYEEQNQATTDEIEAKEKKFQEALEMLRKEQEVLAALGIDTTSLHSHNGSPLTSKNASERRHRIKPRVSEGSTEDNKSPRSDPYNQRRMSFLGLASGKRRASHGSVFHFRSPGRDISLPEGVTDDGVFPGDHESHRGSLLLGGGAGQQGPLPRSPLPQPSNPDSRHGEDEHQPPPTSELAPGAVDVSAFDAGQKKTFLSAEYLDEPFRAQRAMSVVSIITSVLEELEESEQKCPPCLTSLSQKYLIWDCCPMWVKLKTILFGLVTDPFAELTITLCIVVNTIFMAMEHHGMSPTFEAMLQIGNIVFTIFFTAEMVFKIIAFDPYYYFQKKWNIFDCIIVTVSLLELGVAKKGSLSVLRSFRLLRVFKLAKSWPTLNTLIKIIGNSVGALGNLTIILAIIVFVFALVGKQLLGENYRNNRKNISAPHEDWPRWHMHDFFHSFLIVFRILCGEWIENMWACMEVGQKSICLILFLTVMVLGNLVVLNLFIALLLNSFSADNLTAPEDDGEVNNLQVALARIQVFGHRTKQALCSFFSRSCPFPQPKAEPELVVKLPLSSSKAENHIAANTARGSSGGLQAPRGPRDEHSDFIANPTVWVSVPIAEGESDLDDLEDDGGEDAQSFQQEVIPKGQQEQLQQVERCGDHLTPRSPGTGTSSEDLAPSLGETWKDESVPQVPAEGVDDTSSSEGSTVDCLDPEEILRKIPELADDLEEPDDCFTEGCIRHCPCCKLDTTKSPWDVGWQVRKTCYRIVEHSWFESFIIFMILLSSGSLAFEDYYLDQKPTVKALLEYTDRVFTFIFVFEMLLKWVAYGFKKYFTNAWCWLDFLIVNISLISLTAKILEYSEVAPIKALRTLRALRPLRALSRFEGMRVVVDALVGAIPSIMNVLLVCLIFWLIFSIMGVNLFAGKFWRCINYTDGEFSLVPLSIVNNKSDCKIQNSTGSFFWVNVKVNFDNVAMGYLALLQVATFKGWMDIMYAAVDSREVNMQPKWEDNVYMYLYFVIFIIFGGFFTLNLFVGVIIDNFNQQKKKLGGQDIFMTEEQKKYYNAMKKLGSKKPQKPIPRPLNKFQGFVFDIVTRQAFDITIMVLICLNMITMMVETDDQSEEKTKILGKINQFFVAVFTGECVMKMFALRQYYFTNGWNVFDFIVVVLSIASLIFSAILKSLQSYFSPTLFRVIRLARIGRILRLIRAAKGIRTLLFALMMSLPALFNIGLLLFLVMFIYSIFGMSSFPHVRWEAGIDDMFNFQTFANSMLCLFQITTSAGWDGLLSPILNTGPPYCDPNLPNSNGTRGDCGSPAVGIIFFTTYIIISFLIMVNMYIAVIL

Row | IC50 [nM] | Structure (SMILES)
1 | 18 | NC(=O)c1cc(NC(=O)c2c(Oc3ccc(F)cc3)ccc(C(F)(F)F)c2F)ccc1F [Compound 25, N-(3-carbamoyl-4-fluoro-phenyl)-2-fluoro-6-(4-fluorophenoxy)-3-(trifluoromethyl)benzamide]
2 | 3 | [2H]C([2H])([2H])Oc1cc(OC(F)(F)F)ccc1Oc1ccc(C(F)(F)F)c(F)c1C(=O)Nc1ccnc(C(N)=O)c1 [Compound 6, 4-[[2-fluoro-6-[2-(trideuteriomethoxy)-4-(trifluoromethoxy)phenoxy]-3-(trifluoromethyl)benzoyl]amino]pyridine-2-carboxamide]
3 | 3 | COc1cc(OC(F)(F)F)ccc1Oc1ccc(C(F)F)c(F)c1C(=O)Nc1ccc(F)c(C(N)=O)c1 [Compound 7, N-(3-carbamoyl-4-fluoro-phenyl)-3-(difluoromethyl)-2-fluoro-6-[2-methoxy-4-(trifluoromethoxy)phenoxy]benzamide]
4 | 2 | COc1cc(OC(F)(F)F)ccc1Oc1ccc(Cl)c(F)c1C(=O)Nc1ccnc(C(N)=O)c1 [Compound 5, 4-[[3-chloro-2-fluoro-6-[2-methoxy-4-(trifluoromethoxy)phenoxy]benzoyl]amino]pyridine-2-carboxamide]

Same assay, conditions: HEK cells expressing human NaV 1.8, HS (human serum) in compound loading buffer, 11 point dose response, top dose 3 μM, Table 20A, read-out: Nav 1.8 MedChem Optical Assay EVIPR Assay Method A HS IC50

Row | IC50 [nM] | Structure (SMILES)
5 | 2100 | NC(=O)c1ccc(NC(=O)c2c(Cl)cc(Cl)cc2Oc2ccc(F)cc2)cn1 [Compound 181, 5-[[2,4-Dichloro-6-(4-fluorophenoxy)benzoyl]amino]pyridine-2-carboxamide]
6 | 17 | [2H]C([2H])([2H])c1c(Oc2ccc(C(F)(F)F)c(F)c2C(=O)Nc2ccnc(C(N)=O)c2)ccc(OC(F)(F)F)c1F [Compound 232, 4-[[2-Fluoro-6-[3-fluoro-2-(trideuteriomethyl)-4-(trifluoromethoxy)phenoxy]-3-(trifluoromethyl)benzoyl]amino]pyridine-2-carboxamide]
7 | 150 | NC(=O)c1cc(NC(=O)c2cc(F)c(C(F)(F)F)cc2Oc2ccc(OC(F)(F)F)cc2)ccc1F [Compound 77, N-(3-Carbamoyl-4-fluoro-phenyl)-5-fluoro-2-[4-(trifluoromethoxy)phenoxy]-4-(trifluoromethyl)benzamide]
8 | 99 | [2H]C([2H])([2H])Oc1cc(OC(F)(F)F)ccc1Oc1cc(Cl)cc(Cl)c1C(=O)Nc1ccc(C(N)=O)nc1 [Compound 183, 5-[[2,4-Dichloro-6-[2-(trideuteriomethoxy)-4-(trifluoromethoxy)phenoxy]benzoyl]amino]pyridine-2-carboxamide]
9 | 65 | COc1cc(OC(F)(F)F)ccc1Oc1cc(C2C[C@@H]2C)ncc1C(=O)Nc1ccnc(C(N)=O)c1 (mixture of isomers) [Compound 109, Racemic trans-4-(4-(2-Methoxy-4-(trifluoromethoxy)phenoxy)-6-(2-methylcyclopropyl)nicotinamido)picolinamide]
10 | 18 | COc1cc(OC(F)(F)F)ccc1Oc1ccc(C(F)(F)F)c(OC)c1C(=O)Nc1cc(C(N)=O)ncc1F [Compound 128, 5-Fluoro-4-(2-methoxy-6-(2-methoxy-4-(trifluoromethoxy)phenoxy)-3-(trifluoromethyl)benzamido)picolinamide]
11 | 2 | COc1cc(OC(F)(F)F)ccc1Oc1ccc(C(F)(F)F)c(OC)c1C(=O)Nc1ccc(F)c(C(N)=O)c1 [Compound 92, N-(3-Carbamoyl-4-fluoro-phenyl)-2-methoxy-6-[2-methoxy-4-(trifluoromethoxy)phenoxy]-3-(trifluoromethyl)benzamide]
12 | 7 | COc1nc(Cl)ccc1Oc1ccc(C(F)(F)F)c(F)c1C(=O)Nc1ccc(F)c(C(N)=O)c1 [Compound 54, N-(3-Carbamoyl-4-fluoro-phenyl)-6-[(6-chloro-2-methoxy-3-pyridyl)oxy]-2-fluoro-3-(trifluoromethyl)benzamide]

The next lines start with the compound.

Row | Structure (SMILES) | IC50 [nM]
13 | COc1cc(OC(F)(F)F)ccc1Oc1ccc(F)c(Cl)c1C(=O)Nc1cc(C(N)=O)ncc1C [Compound 129, 4-[[2-Chloro-3-fluoro-6-[2-methoxy-4-(trifluoromethoxy)phenoxy]benzoyl]amino]-5-methyl-pyridine-2-carboxamide] | 69
14 | [2H]C([2H])([2H])Oc1c(Oc2cc(Cl)c(C(F)F)c(OC)c2C(=O)Nc2ccnc(C(N)=O)c2)ccc(OC(F)(F)F)c1F [Compound 233] | 4
15 | [2H]C([2H])([2H])Oc1cc(OC(F)(F)F)ccc1Oc1cc(C(F)(F)F)cc(F)c1C(=O)Nc1ccc(C(N)=O)nc1 [Compound 154] | 55
16 | COc1cc(F)ccc1Oc1cc(OC(F)(F)F)ccc1C(=O)Nc1ccnc(C(N)=O)c1 [Compound 148, 4-[[2-(4-Fluoro-2-methoxy-phenoxy)-4-(trifluoromethoxy)benzoyl]amino]pyridine-2-carboxamide] | 850
17 | COc1cc(OC(F)(F)F)ccc1Oc1cncc(F)c1C(=O)Nc1cc(C(N)=O)ncc1C [Compound 151, 4-[[3-Fluoro-5-[2-methoxy-4-(trifluoromethoxy)phenoxy]pyridine-4-carbonyl]amino]-5-methyl-pyridine-2-carboxamide] | 520
18 | [2H]C([2H])([2H])Oc1c(Oc2ccc(OC(F)(F)F)c(F)c2C(=O)Nc2ccnc(C(N)=O)c2)ccc(OC(F)(F)F)c1F [Compound 225, 4-[[2-Fluoro-6-[3-fluoro-2-(trideuteriomethoxy)-4-(trifluoromethoxy)phenoxy]-3-(trifluoromethoxy)benzoyl]amino]pyridine-2-carboxamide] | 3
19 | NC(=O)c1ccc(NC(=O)c2c(Oc3ccc(OC(F)(F)F)cc3)ccc(C(F)(F)F)c2F)cc1 [Compound 264, N-(4-carbamoylphcnyl)-2-fluoro-6-(4-(trifluoromethoxy)phenoxy)-3-(trifluoromethyl)benzamide] | 54
20 | COc1cc(OC(F)(F)F)ccc1Oc1ccc(C(F)(F)F)c(F)c1C(=O)Nc1cccc(C(N)=O)c1 [Compound 44, N-(3-carbamoylphenyl)-2-fluoro-6-[2-methoxy-4-(trifluoromethoxy)phenoxy]-3-(trifluoromethyl)benzamide] | 5
21 | COc1cc(OC(F)(F)F)ccc1Oc1cc([C@@H]2C[C@H]2C)ncc1C(=O)Nc1ccc(F)c(C(N)=O)c1 (single isomer, unassigned) [Compound 114] | 17
22 | COc1cc(OC(F)(F)F)ccc1Oc1cc(C2CC2(F)F)ncc1C(=O)Nc1ccnc(C(N)=O)c1 (stereo not shown) [Compound 107, N-(2-Carbamoyl-4-pyridyl)-6-(2,2-difluorocyclopropyl)-4-[2-methoxy-4-(trifluoromethoxy)phenoxy]pyridine-3-carboxamide] | 123
23 | COc1cc(OC(F)(F)F)ccc1Oc1cnc(C2CC2)c(F)c1C(=O)Nc1ccc(F)c(C(N)=O)c1 [Compound 46, N-(3-Carbamoyl-4-fluoro-phenyl)-2-cyclopropyl-3-fluoro-5-[2-methoxy-4-(trifluoromethoxy)phenoxy]pyridine-4-carboxamide] | 1200
24 | COc1cc(OC(F)(F)F)ccc1Oc1ccc(C(F)(F)F)c(F)c1C(=O)Nc1ccc(F)c(C(=O)N(C)C)c1 [Compound 95, N-[3-(dimethylcarbamoyl)-4-fluoro-phenyl]-2-fluoro-6-[2-methoxy-4-(trifluoromethoxy)phenoxy]-3-(trifluoromethyl)benzamide] | 45
25 | COc1c(C(F)(F)F)ncc(Oc2ccc(OC(F)(F)F)cc2)c1C(=O)Nc1cc(C(N)=O)ncc1C [Compound 131, N-(2-Carbamoyl-5-methyl-4-pyridyl)-3-methoxy-5-[4-(trifluoromethoxy)phenoxy]-2-(trifluoromethyl)pyridine-4-carboxamide] | 170
